Test results: ChEMBL document CHEMBL1201862, “PubChem BioAssay data set” (2004)
Calls of active or inactive are those of the source.

Tests used:
Protein Wnt-3a = Protein Wnt-3a (Mus musculus, UniProt P27467); assay: Wnt3a-driven reporter signaling inhibition, dose response, selectivity assay for Gli-SUFU antagonist project, Wnt-LIGHT cells, luminescence (AID 651570); assay type: functional; settings: read-out: IC50_Mean;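 further: Wnt-LIGHT reporter cells stimulated with conditioned medium from Wnt3a-producing cells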
Sequence of Protein Wnt-3a (P27467 whole entry): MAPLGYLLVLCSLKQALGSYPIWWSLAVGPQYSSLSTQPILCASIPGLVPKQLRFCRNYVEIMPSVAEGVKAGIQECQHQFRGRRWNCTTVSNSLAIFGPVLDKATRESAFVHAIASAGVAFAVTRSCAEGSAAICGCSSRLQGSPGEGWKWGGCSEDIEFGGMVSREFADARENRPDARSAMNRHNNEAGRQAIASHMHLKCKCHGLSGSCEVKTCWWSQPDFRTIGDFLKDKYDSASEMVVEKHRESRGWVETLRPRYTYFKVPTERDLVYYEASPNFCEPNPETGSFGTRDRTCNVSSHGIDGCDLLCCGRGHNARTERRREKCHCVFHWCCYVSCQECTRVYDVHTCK

[1] = target: T1, High affinity choline transporter 1 (Homo sapiens, UniProt Q9GZV3); assay: CHT inhibitors, dose response, cell-based, 5-point CRC, membrane potential dye (AID 504840); assay type: functional
T1 sequence (Q9GZV3 whole entry): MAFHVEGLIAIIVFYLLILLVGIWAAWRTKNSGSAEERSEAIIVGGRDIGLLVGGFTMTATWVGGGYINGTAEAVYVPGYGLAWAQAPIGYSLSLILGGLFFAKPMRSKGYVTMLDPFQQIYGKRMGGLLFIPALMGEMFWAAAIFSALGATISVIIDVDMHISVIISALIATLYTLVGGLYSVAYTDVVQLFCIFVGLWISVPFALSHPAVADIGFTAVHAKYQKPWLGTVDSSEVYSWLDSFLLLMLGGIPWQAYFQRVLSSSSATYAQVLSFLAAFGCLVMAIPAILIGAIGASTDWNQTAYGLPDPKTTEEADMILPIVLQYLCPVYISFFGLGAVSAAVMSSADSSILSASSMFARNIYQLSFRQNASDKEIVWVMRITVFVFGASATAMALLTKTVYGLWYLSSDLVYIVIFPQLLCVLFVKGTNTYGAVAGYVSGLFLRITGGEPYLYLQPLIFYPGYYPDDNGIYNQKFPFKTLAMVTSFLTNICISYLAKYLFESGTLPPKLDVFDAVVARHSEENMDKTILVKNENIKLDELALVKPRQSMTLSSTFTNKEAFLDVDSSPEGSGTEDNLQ

[2] = target: T1, High affinity choline transporter 1; assay: CHT inhibitors, dose response, cell-based, 10-point CRC, membrane potential dye (AID 588401); assay type: functional;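 further: membrane potential dye fluorescence of choline-evoked depolarization via CHT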
[3] = target: T2, Sentrin-specific protease 7 (Homo sapiens, UniProt Q9BQF6); assay: SENP7 protease inhibitors, SAR follow-up, biochemical, luminescence (AID 504497); assay type: functional
T2 sequence (Q9BQF6 whole entry): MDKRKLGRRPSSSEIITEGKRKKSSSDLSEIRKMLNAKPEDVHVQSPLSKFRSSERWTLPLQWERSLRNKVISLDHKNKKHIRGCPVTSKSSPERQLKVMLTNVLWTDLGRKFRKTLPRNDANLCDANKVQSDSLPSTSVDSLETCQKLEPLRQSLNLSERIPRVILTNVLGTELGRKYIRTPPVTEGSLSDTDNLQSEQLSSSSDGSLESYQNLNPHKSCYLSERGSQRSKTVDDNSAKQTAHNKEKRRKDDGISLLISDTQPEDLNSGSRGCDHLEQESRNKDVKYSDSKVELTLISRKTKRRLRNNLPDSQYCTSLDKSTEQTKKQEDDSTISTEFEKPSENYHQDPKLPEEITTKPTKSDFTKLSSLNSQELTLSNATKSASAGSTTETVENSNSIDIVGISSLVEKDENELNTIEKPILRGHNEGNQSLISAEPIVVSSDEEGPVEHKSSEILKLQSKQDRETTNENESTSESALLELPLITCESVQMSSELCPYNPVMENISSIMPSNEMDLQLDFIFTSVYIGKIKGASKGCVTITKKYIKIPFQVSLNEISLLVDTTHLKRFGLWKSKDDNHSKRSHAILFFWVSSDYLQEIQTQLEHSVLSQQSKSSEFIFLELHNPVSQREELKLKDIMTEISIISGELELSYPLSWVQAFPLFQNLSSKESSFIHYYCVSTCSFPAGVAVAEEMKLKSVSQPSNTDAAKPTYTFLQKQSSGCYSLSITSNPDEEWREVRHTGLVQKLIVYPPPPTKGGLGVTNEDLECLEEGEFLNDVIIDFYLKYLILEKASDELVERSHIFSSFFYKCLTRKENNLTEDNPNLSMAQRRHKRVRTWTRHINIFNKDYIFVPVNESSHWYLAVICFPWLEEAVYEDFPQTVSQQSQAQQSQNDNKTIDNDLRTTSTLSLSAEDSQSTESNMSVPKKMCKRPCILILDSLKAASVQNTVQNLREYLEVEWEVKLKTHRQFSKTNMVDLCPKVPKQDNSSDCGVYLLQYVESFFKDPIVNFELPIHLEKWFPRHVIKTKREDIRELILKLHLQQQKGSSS

[4] = target: T3, Sentrin-specific protease 8 (Homo sapiens, UniProt Q96LD8); assay: SENP8 protease inhibitors, SAR follow-up, biochemical, luminescence (AID 504501); assay type: functional
T3 sequence (Q96LD8 whole entry): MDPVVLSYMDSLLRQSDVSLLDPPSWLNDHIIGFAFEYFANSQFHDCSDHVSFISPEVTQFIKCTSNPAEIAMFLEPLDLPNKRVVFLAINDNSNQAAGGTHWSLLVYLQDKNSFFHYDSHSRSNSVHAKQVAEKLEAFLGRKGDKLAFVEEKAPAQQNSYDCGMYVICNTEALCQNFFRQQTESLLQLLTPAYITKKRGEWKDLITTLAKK

Caspase-3 = target: T4, Caspase-3 (Homo sapiens, UniProt P42574); assay: SAR Analysis of small molecule inhibitors of Sentrin-specific proteases (SENPs) using a Caspase-3 Selectivity assay. [Related pubchem assays (depositor defined):AID2540, AID2599, AID434973, AID489001]; assay type: functional
T4 sequence (P42574 whole entry): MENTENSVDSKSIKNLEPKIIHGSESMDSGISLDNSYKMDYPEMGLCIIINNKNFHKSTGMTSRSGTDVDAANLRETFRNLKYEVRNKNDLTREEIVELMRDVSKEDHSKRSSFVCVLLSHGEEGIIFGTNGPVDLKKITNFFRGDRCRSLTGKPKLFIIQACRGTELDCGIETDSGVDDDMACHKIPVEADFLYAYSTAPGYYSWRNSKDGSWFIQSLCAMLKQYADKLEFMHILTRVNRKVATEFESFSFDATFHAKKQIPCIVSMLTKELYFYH

[5] = target: T5, Sentrin-specific protease 6 (Homo sapiens, UniProt Q9GZR1); assay: SAR Analysis of small molecule inhibitors of Sentrin-specific protease 6 (SENP6) using a Luminescent assay. [Related pubchem assays (depositor defined):AID2582, AID2599]; assay type: functional
T5 sequence (Q9GZR1 whole entry): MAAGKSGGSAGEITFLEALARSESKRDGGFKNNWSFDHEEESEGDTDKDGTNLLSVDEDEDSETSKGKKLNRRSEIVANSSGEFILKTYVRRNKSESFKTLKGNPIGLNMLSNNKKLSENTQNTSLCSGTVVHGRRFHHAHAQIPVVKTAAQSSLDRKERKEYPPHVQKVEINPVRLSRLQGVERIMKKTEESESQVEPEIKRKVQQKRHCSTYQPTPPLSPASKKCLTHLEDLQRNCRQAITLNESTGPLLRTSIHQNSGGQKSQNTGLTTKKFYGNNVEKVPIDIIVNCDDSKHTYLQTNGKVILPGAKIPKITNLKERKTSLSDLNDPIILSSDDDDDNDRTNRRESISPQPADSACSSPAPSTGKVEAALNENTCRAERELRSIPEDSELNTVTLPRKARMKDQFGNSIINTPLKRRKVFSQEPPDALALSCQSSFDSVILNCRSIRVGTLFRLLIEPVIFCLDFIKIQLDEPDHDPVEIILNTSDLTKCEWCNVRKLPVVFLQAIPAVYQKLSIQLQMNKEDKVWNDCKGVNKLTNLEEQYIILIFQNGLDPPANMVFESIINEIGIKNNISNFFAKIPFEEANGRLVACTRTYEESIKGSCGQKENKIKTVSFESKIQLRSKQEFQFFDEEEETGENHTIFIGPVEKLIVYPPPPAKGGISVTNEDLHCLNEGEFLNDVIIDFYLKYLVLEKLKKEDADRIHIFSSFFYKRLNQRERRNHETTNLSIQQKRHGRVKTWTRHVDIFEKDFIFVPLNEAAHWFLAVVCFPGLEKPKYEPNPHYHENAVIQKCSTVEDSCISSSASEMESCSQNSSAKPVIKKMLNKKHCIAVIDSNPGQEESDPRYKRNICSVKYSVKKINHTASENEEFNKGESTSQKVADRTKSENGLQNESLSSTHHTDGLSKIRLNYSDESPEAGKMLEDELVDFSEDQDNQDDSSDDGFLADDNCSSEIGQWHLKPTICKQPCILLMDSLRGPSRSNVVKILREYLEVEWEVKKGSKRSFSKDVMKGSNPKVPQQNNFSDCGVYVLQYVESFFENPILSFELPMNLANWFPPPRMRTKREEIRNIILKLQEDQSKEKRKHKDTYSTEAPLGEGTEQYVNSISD

[6] = target: Mitochondrial peptide methionine sulfoxide reductase (Bos taurus, UniProt P54149); assay type: functional;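 further: absorbance read-out, biochemical high-throughput dose-response screen for MsrA inhibitors, confirmatory; recombinant bovine MsrA coupled to E. coli TrxB with NADPH and selenocystamine; potency is for inhibitors of MsrA activity on DMSO substrate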
Sequence of Mitochondrial peptide methionine sulfoxide reductase (P54149 whole entry): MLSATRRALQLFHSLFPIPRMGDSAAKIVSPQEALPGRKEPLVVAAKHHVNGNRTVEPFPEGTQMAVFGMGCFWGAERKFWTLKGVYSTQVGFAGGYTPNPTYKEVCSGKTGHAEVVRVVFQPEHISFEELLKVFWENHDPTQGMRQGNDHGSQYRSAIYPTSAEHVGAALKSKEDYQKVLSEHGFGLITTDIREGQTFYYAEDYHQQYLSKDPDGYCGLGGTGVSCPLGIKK

[7] = target: Benomyl/methotrexate resistance protein (Candida albicans, UniProt P28873); assay: CaMdr1 efflux pump inhibitor potency, dose response, singleplex, Cherry Pick1 hits (AID 588608); assay type: functional
Sequence of Benomyl/methotrexate resistance protein (P28873 whole entry): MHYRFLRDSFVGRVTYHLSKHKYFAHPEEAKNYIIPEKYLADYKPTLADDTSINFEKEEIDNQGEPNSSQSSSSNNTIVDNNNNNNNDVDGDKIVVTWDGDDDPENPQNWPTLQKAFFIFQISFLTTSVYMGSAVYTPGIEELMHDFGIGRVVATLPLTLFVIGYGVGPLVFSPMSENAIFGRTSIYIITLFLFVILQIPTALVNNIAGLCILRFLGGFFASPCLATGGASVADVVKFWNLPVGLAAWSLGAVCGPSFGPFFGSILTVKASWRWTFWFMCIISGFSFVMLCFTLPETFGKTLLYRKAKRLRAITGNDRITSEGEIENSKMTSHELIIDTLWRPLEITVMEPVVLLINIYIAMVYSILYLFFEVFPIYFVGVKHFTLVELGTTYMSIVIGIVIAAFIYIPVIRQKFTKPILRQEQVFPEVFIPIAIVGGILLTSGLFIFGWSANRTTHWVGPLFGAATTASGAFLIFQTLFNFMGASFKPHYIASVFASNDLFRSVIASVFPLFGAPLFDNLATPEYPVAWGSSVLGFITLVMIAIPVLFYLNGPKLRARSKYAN

[8] = target: T6, Sentrin-specific protease 1 (Homo sapiens, UniProt Q9P0U3); assay: potency of human SENP1 inhibitors, dose response, biochemical, kinetic FRET (AID 651697); assay type: functional; settings: read-out: IC50_Mean
T6 sequence (Q9P0U3 whole entry): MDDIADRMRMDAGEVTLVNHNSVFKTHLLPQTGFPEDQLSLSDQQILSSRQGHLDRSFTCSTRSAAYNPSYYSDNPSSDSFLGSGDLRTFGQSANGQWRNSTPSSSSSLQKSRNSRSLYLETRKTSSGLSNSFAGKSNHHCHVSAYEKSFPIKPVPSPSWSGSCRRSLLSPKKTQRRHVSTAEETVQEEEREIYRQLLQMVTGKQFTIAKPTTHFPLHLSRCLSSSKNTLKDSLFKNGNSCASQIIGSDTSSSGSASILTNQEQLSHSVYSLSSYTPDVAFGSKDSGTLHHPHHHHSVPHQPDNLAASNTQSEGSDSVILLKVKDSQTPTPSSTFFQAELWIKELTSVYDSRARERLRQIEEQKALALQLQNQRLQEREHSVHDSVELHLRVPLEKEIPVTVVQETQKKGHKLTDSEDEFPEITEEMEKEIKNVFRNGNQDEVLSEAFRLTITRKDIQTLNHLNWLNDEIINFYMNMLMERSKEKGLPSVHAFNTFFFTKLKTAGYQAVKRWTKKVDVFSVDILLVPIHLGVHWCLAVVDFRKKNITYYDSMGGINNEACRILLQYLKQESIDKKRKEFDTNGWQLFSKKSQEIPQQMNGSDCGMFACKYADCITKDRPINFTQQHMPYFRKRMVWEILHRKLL

[9] = target: T6, Sentrin-specific protease 1; assay: Dose response confirmation of small molecule inhibitors of the catalytic domain of the SUMO protease, SENP1 in a FRET assay.; assay type: functional; settings: read-out: IC50_Mean
[10] = target: 5-hydroxytryptamine receptor 2A (Mus musculus, UniProt P35363); assay type: functional, cell-based;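 further: CHO-K1 cells with tagged receptor and beta-arrestin; agonist potency measured as compound-induced activation of the receptor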
Sequence of 5-hydroxytryptamine receptor 2A (P35363 whole entry): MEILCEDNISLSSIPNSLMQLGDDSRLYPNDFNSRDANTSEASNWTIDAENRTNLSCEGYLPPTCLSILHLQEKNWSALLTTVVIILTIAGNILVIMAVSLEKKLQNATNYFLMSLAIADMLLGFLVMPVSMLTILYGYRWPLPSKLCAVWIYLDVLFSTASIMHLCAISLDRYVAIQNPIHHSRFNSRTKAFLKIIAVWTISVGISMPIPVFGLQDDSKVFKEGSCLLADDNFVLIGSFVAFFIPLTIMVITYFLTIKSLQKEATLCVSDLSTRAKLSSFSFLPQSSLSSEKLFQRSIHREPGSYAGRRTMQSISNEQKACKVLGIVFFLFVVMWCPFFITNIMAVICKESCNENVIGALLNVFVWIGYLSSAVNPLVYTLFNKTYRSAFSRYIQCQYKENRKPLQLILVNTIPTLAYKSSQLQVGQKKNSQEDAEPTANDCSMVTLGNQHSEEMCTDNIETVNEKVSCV

Mu-type opioid receptor = Mu-type opioid receptor (Homo sapiens, UniProt P35372); assay type: functional, cell-based;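 further: U2OS cells with beta-arrestin recruitment to OPRM1 by beta-gal complementation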
Sequence of Mu-type opioid receptor (P35372 whole entry): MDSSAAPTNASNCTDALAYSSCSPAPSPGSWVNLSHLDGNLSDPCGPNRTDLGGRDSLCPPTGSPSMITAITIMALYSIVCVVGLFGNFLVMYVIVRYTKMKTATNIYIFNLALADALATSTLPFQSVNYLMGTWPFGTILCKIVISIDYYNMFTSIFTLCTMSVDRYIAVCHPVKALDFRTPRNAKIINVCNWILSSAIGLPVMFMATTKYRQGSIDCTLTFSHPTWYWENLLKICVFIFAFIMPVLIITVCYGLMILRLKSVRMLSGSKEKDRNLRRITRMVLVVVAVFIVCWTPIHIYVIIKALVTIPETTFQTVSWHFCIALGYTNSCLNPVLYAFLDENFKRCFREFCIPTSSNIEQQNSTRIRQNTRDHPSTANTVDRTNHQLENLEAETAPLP

[11] = target: T7, Rac GTPase-activating protein 1 (Homo sapiens, UniProt Q9H0H5); assay: MgcRacGAP GTPase-activating activity inhibitors, confirmation, biochemical, ADP Hunter fluorescence, primary and confirmatory (AID 624330); assay type: functional
T7 sequence (Q9H0H5 whole entry): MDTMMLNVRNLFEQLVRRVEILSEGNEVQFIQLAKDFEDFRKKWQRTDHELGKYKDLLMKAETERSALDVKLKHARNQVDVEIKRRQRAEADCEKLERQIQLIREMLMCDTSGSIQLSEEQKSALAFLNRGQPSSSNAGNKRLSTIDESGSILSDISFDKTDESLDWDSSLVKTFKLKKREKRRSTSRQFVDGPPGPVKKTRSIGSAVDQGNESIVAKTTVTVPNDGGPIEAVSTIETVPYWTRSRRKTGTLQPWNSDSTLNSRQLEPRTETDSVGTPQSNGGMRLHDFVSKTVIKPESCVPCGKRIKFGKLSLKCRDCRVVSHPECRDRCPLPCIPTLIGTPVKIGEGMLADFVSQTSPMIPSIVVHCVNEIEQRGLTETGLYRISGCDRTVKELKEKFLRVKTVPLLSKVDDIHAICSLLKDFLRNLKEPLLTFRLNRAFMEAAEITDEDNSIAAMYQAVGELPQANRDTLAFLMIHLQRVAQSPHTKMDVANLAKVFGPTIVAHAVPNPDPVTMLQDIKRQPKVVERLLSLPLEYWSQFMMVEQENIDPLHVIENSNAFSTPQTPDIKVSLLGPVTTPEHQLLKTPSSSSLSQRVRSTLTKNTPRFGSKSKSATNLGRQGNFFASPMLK

[12] = target: T3, Sentrin-specific protease 8; assay type: functional

In the case of NC(=O)CC(NC(=O)c1ccccc1)c1ccc(N2CCCCCC2)c([N+](=O)[O-])c1 (configuration not stated), the IC50 (Protein Wnt-3a) is reported as 19.9 µM (active), the IC50 [1] is reported as 7.51 µM (active) and the IC50 [2] is reported as 6.21 µM (active).

In the case of CCCc1ccc(OCc2ccc(C(=O)Nc3ccccc3F)cc2)cc1, the IC50 [3] is reported as 85.3 µM (active), the IC50 [4] is reported as 70.3 µM (active) and the IC50 (Caspase-3) is reported as > 99 µM (inactive). For the same compound, the IC50 [5] was 43.7 µM (active).

With CC(Nc1c([N+](=O)[O-])c(=O)oc2ccccc12)c1ccccc1 (configuration not stated) the IC50 [6] was 125 µM (inactive).

In the case of C/C(=N\Nc1ccc([N+](=O)[O-])cc1[N+](=O)[O-])C(C)C(C)C (configuration not stated), the IC50 [6] is reported as 155 µM (inactive).

In the case of O=C(COC(=O)c1c2ccccc2cc2ccccc12)Nc1ncc(C(F)(F)F)cc1Cl, the EC50 [7] is reported as 23 µM (active).

With FC(F)(F)c1ccc(N/N=C/c2cn(Cc3ccccc3)c3ccccc23)cc1 the IC50 [3] was > 99 µM (inactive), the IC50 [4] was > 99 µM (inactive) and the IC50 (Caspase-3) was > 99 µM (inactive). For the same compound, the IC50 [5] was > 99 µM (inactive).

With CC(=O)c1ccccc1Oc1nc(CN2CCOCC2)nc2scc(-c3cccs3)c12 the IC50 [8] was 26.6 µM (inactive) and the IC50 [9] was 69.6 µM (inactive).

For CNc1cc(Cl)nc(SC)n1, the IC50 [1] was 3.92 µM (active) and the IC50 [2] was 2.67 µM (active).

In the case of COc1ccc(S(=O)(=O)N2CCC(N3CCN(Cc4ccccc4)CC3)CC2)cc1, the EC50 [10] is reported as 76.1 µM (inactive), the EC50 (Mu-type opioid receptor) is reported as 92.4 µM (inactive) and the IC50 [11] is reported as 98.7 µM (active).

With O=[N+]([O-])c1c[cH-]c(N2CCN(Cc3ccccc3)CC2)c2[c+]1[n-]o[n+]2=O the IC50 [12] was 17.3 µM (active).
